Measured values reported in ChEMBL document CHEMBL3886176, “TSH receptor antagonizing tetrahydroquinoline compounds” (2015).

Biological target: Thyrotropin receptor (Homo sapiens, UniProt P16473)
Type: functional, cell-based, CHO

Sequence of Thyrotropin receptor (P16473 whole entry): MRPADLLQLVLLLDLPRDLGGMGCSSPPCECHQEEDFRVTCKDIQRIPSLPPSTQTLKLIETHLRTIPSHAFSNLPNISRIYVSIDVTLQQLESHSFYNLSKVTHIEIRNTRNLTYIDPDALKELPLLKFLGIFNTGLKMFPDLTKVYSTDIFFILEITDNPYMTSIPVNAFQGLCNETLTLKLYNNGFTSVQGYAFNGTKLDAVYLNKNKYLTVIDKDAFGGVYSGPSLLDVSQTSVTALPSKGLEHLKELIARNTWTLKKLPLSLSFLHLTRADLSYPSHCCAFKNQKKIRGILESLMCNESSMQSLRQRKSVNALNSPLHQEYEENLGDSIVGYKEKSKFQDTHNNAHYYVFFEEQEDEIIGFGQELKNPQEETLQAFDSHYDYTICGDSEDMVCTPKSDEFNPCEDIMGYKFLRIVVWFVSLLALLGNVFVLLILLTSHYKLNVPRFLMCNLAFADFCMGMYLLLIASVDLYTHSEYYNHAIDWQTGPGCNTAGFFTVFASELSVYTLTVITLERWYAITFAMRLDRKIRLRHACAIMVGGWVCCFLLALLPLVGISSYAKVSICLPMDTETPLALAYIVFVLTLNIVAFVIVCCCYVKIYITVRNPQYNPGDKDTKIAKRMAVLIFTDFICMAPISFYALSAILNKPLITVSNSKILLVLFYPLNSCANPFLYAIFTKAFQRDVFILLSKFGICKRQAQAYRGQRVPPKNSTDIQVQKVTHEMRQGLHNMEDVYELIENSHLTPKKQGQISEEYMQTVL

CC(=O)N1CCC(C)(c2ccccc2)c2cc(NC(=O)c3ccc(Br)s3)ccc21 (stereo unspecified)
IC50: < 100 nM
